Results reported in patent publication US20090111818A1, “Combinations of Eszopiclone and O-Desmethylvenlafaxine, and Methods of Treatment of Menopause and Mood, Anxiety, and Cognitive Disorders” (SEPRACOR INC., priority 2005, published 2009).

Key:
[1] = in vivo; cited from earlier work
norepinephrine uptake = details: in vitro; cited from earlier work
dopamine uptake = details: in vitro; cited from earlier work
[2] = system: norepinephrine synaptosomal uptake; details: cited from earlier work
[3] = system: women with insomnia secondary to perimenopause or menopause; assay: Clinical study of eszopiclone 3 mg vs placebo: number of nocturnal awakenings due to hot flashes; format: in vivo, human; details: Week 1; 3 mg nightly; p<0.0001
Protocol: The study was aimed at observing efficacy of eszopiclone 3 mg compared to placebo in the treatment of insomnia secondary to perimenopause or menopause.
The study was a multicenter, randomized, double-blind, placebo-controlled, parallel-group study. […] The primary method of analysis compared the post-randomization results between the two treatment groups.
Subjects were women with insomnia secondary to perimenopause or menopause. Subjects were perimenopausal or menopausal and had insomnia symptoms including ≧45 minutes sleep latency (SL) and total sleep time (TST) ≦6 hours. Perimenopausal/menopausal symptoms predated the onset of sleep disturbance symptoms. The patient population was predominately Caucasian (77.2%). The mean age was 49, with a range of 40-60.
A total of 410 subjects were randomized. Among them, 201 received 3 mg of eszopiclone (ESZ) nightly (at bedtime) for four weeks and 209 received matching placebo (PBO).

What does the source list for `CN(C)CC(c1ccc(O)cc1)C1(O)CCCCC1` (racemic) [O-desmethylvenlafaxine, (±)-1-[2-(dimethylamino)-1-(4-hydroxyphenyl)ethyl]-cyclohexanol]?
half-life (t½) [1]: about 10 hours; half-life relative to that of venlafaxine [1]: approximately 2.5 times; inhibition of norepinephrine uptake compared with the parent compound venlafaxine (norepinephrine uptake): more potent inhibitor; inhibition of dopamine uptake compared with the parent compound venlafaxine (dopamine uptake): more potent inhibitor

With `COc1ccc(C(CN(C)C)C2(O)CCCCC2)cc1` (single isomer, unassigned) [venlafaxine (−) enantiomer] as the compound, how does the “inhibition of norepinephrine synaptosomal uptake, comparison of enantiomers” value [2] read?
Its value is “more potent inhibitor”.

With `CN1CCN(C(=O)O[C@H]2c3nccnc3C(=O)N2c2ccc(Cl)cn2)CC1` [Eszopiclone, (+) 6-(5-chloropyrid-2-yl)-5-(4-methylpiperazin-1-yl)carbonyloxy-7-oxo-6,7-dihydro-5H-pyrrolo[3-4-b]pyrazine] as the compound, how does the “change from baseline in number of nocturnal awakenings due to hot flashes compared with PBO” value [3] read?
Its value is “significantly reduced”.
